These results are taken from patent US20140179800A1, “Inhibition of the Survival of Bladder Cancer by Cyclohexenone Compounds from Antrodia Camphorata” (Golden Biotechnology Corporation, priority 2009, published 2014).

Usually IC50 stands for the concentration that gives 50% inhibition. Read a low IC50 as inhibition by little substance.

The subject of this experiment is bladder cancer cell line TSGH-8301. Description: In vitro survival assay (MTT) for anti-bladder cancer effects. The experiment is classed as cell-based. To be noted: TSGH-8301 human bladder carcinoma cells, 48 hours, survival rate. The protocol:
Inhibiting effects of bladder cancer cells by cyclohexenone compounds of Antrodia camphorata from example 1 were assessed according to the anticancer-drug screening model of National Cancer Institute (NCI). The compound 4-hydroxy-2,3-dimethoxy-6-methyl-5-(3,7,11-trimethyl-dodeca-2,6,10-trienyl)-cyclohex-2-enone from example 1 was added into the culture media of bladder cancer cell line TSGH-8301 to determine the survival rates. Survival of cell was analyzed using MTT assay. TSGH-8301 cell line was a human bladder carcinoma cell line.
MTT assay is commonly used to analyze cell proliferation, survival rate of viable cells and cytotoxicity. MTT (3[4,5-dimethylthiazol-2-yl]-2,5-diphenyltetrazolium bromide) is a yellow dye which can be converted to water-insoluble purple formazan on the reductive cleavage of its tetrazolium ring by the succinate tetrazolium reductase in mitochondria of cells. The amount of formazan produced is used to detect the number of viable cells and calculate the survival rates.
The TSGH-8301 cells were cultivated in DMEM medium supplemented with 10% fetal bovine serum, 100 U/ml of Penicillin and 100 μg/ml of Streptomycin at 37° C., 5% CO2 for 24 hours. Proliferated cells were washed once with PBS, treated with 1× trypsin-EDTA, and centrifuged at 1200 rpm for 5 min. […] The absorbances were measured at 570 nm with an ELISA Reader to determine the survival rates.

With `COC1=C(OC)C(O)C(C/C=C(\C)CC/C=C(\C)CCC=C(C)C)C(C)C1=O` (stereo not shown) [formula 2, 4-hydroxy-2,3-dimethoxy-6-methyl-5-(3,7,11-trimethyl-dodeca-2,6,10-trienyl)-cyclohex-2-enone], 1.05 µg/mL corresponded to half-maximal inhibition (IC50).
